What was measured:
[1] = Induction of anti-CD3 antibodies-stimulated human exhausted CD8+ T cell activation assessed fold increase in CTLA4 expression measured by flow cytometry analysis; assay type: functional, T cell line; further: reference of the scale not given here
[2] = Induction of anti-CD3/CD28 antibodies-stimulated human CD8+ T cell activation at 10 uM assessed fold increase in cell proliferation measured by flow cytometry analysis; assay type: functional, T cell line
[3] = Induction of anti-CD3 antibodies-stimulated human exhausted CD4+ T cell activation assessed fold increase in CTLA4 expression measured by flow cytometry analysis; assay type: functional, T cell line; further: reference of the scale not given here
[4] = Induction of anti-CD3 antibodies-stimulated human exhausted T cell activation assessed fold increase in IL-2 secretion measured by ELISA assay; assay type: functional, T cell line; further: reference of the scale not given here
[5] = Induction of anti-CD3/CD28 antibodies-stimulated human T cell activation at 0.3 uM assessed fold increase in CD25 expression measured by ELISA assay; assay type: functional, T cell line
[6] = Induction of anti-CD3 antibodies-stimulated human T cell activation at 8 uM assessed fold increase in IL-2 secretion measured by ELISA assay; assay type: functional, T cell line; further: reference of the scale not given here
[7] = Induction of anti-CD3/CD28 antibodies-stimulated human T cell activation at 4 uM assessed fold increase in CD25 expression measured by ELISA assay; assay type: functional, T cell line
[8] = Induction of activation of human CD56+ CD3- NK cells co-cultured with human K562 cells in 1:1 ratio and assessed as increase in IFN-gamma secretion at 0.625 uM measured by ELISA assay; assay type: functional, Natural killer cell
[9] = Induction of anti-CD3/CD28 antibodies-stimulated human T cell activation at 4 uM assessed fold increase in IL-2 secretion measured by ELISA assay; assay type: functional, T cell line
[10] = Induction of anti-CD3/CD28 antibodies-stimulated human T cell activation at 1.11 uM assessed fold increase in IFN-gamma secretion measured by ELISA assay; assay type: functional, T cell line
[11] = Induction of anti-CD3/CD28 antibodies-stimulated human CD8+ T cell activation at 1.11 uM assessed fold increase in CD69 expression measured by flow cytometry analysis; assay type: functional, T cell line
B cell = assay: Induction of anti-IgM-stimulated human CD20+ B cell activation at 10 to 1000 uM assessed as increase in CD69 expression measured as mean fluorescence intensity AUC by flow cytometry analysis; assay type: functional, cell-based; settings: dose 10-1000 µM
[12] = Induction of anti-CD3 antibodies-stimulated human CD4+ T cell activation at 1.11 uM assessed fold increase in CD69 expression measured by flow cytometry analysis; assay type: functional, T cell line; further: reference of the scale not given here
[13] = Induction of anti-CD3 antibodies-stimulated human T cell activation at 1.11 uM assessed fold increase in GM-CSF secretion measured by ELISA assay; assay type: functional, T cell line; further: reference of the scale not given here
[14] = Induction of anti-CD3 antibodies-stimulated human T cell activation at 10 uM assessed fold increase in GM-CSF secretion measured by ELISA assay; assay type: functional, T cell line; further: reference of the scale not given here
[15] = Induction of anti-CD3/CD28 antibodies-stimulated human CD8+ T cell activation at 10 uM assessed fold increase in CD69 expression measured by flow cytometry analysis; assay type: functional, T cell line
[16] = Induction of anti-CD3 antibodies-stimulated human exhausted T cell activation assessed fold increase in GM-CSF secretion measured by ELISA assay; assay type: functional, T cell line; further: reference of the scale not given here
[17] = Induction of anti-CD3 antibodies-stimulated human T cell activation at 1 uM assessed fold increase in IL-2 secretion measured by ELISA assay; assay type: functional, T cell line; further: reference of the scale not given here
[18] = Induction of anti-CD3 antibodies-stimulated human T cell activation at 1 uM assessed fold increase in CD25 expression measured by ELISA assay; assay type: functional, T cell line; further: reference of the scale not given here
[19] = Induction of anti-CD3 antibodies-stimulated human CD8+ T cell activation at 1.11 uM assessed fold increase in CD69 expression measured by flow cytometry analysis; assay type: functional, T cell line; further: reference of the scale not given here
[20] = Induction of anti-CD3/CD28 antibodies-stimulated human T cell activation at 1.11 uM assessed fold increase in GM-CSF secretion measured by ELISA assay; assay type: functional, T cell line
[21] = Induction of anti-CD3 antibodies-stimulated human CD8+ T cell activation at 10 uM assessed fold increase in CD69 expression measured by flow cytometry analysis; assay type: functional, T cell line; further: reference of the scale not given here
[22] = Induction of anti-CD3/CD28 antibodies-stimulated human CD8+ T cell activation at 1.11 uM assessed fold increase in cell proliferation measured by flow cytometry analysis; assay type: functional, T cell line
[23] = Induction of activation of human CD56+ CD3- NK cells co-cultured with human K562 cells in 1:1 ratio and assessed as increase in IFN-gamma secretion at 2.5 uM measured by ELISA assay; assay type: functional, Natural killer cell
[24] = Induction of activation of human CD56+ CD3- NK cells co-cultured with human K562 cells in 1:1 ratio and assessed as increase in TNF-alpha secretion at 2.5 uM measured by ELISA assay; assay type: functional, Natural killer cell
[25] = Induction of anti-CD3 antibodies-stimulated human CD4+ T cell activation at 10 uM assessed fold increase in CD69 expression measured by flow cytometry analysis; assay type: functional, T cell line; further: reference of the scale not given here
[26] = Induction of anti-CD3/CD28 antibodies-stimulated human CD4+ T cell activation at 10 uM assessed fold increase in cell proliferation measured by flow cytometry analysis; assay type: functional, T cell line
[27] = Induction of anti-CD3/CD28 antibodies-stimulated human T cell activation at 10 uM assessed fold increase in TNF-alpha secretion measured by ELISA assay; assay type: functional, T cell line
[28] = Induction of anti-CD3/CD28 antibodies-stimulated human anergic T cell activation at 0.37 uM assessed fold increase in IFN-gamma secretion measured by ELISA assay; assay type: functional, T cell line
[29] = Induction of anti-CD3/CD28 antibodies-stimulated human anergic T cell activation at 1.11 uM assessed fold increase in IFN-gamma secretion measured by ELISA assay; assay type: functional, T cell line
[30] = Induction of anti-CD3 antibodies-stimulated human CD8+ T cell activation at 10 uM assessed fold increase in cell proliferation measured by flow cytometry analysis; assay type: functional, T cell line; further: reference of the scale not given here
[31] = Induction of anti-CD3/CD28 antibodies-stimulated human T cell activation at 1 uM assessed fold increase in IL-2 secretion measured by ELISA assay; assay type: functional, T cell line
[32] = Induction of anti-CD3/CD28 antibodies-stimulated human CD4+ T cell activation at 1.11 uM assessed fold increase in cell proliferation measured by flow cytometry analysis; assay type: functional, T cell line
[33] = Induction of anti-CD3/CD28 antibodies-stimulated human T cell activation at 1.11 uM assessed fold increase in TNF-alpha secretion measured by ELISA assay; assay type: functional, T cell line
[34] = Induction of anti-CD3 antibodies-stimulated human CD8+ T cell activation at 1.11 uM assessed fold increase in cell proliferation measured by flow cytometry analysis; assay type: functional, T cell line; further: reference of the scale not given here
[35] = Induction of activation of human CD56+ CD3- NK cells co-cultured with human K562 cells in 1:1 ratio and assessed as increase in TNF-alpha secretion at 0.625 uM measured by ELISA assay; assay type: functional, Natural killer cell
[36] = Induction of anti-CD3 antibodies-stimulated human T cell activation at 10 uM assessed fold increase in IFN-gamma secretion measured by ELISA assay; assay type: functional, T cell line; further: reference of the scale not given here
[37] = Induction of activation of human CD56+ CD3- NK cells co-cultured with human K562 cells in 1:1 ratio and assessed as increase in IFN-gamma secretion at 10 uM measured by ELISA assay; assay type: functional, Natural killer cell

| Compound | fold change (FC) [1] | fold change (FC) [2] | fold change (FC) [3] | fold change (FC) [4] | fold change (FC) [5] | fold change (FC) [6] | fold change (FC) [7] | fold change (FC) [8] | fold change (FC) [9] | fold change (FC) [10] | fold change (FC) [11] | AUC (B cell) | fold change (FC) [12] | fold change (FC) [13] | fold change (FC) [14] | fold change (FC) [15] | fold change (FC) [16] | fold change (FC) [17] | fold change (FC) [18] | fold change (FC) [19] | further results |
| --- | --- | --- | --- | --- | --- | --- | --- | --- | --- | --- | --- | --- | --- | --- | --- | --- | --- | --- | --- | --- | --- |
| Cn1cnnc1CC1(c2cccc(NC(=O)c3nc4c(C(F)(F)F)cccc4[nH]3)c2)COC1 | >1.61 | 3.01 | >1.61 | >3.01 | 1.31 | >=0.201 | 1.51 | 2.01 | >=7.5 | >4 | 1.201 | 0.5 | >1.601 | <=1.5 | 2.01 | 1.201 | <=1.4 | 0.101 | 0.801 | 1.201 | fold change (FC) [20]: 1.51; fold change (FC) [21]: 1.401; fold change (FC) [22]: 3.01; fold change (FC) [23]: 1.01; fold change (FC) [24]: 1.01; fold change (FC) [25]: >1.601; fold change (FC) [26]: >4; fold change (FC) [27]: 2.01; fold change (FC) [28]: <=2.5; fold change (FC) [29]: 2.51; fold change (FC) [30]: >4; fold change (FC) [31]: 5; fold change (FC) [32]: >4; fold change (FC) [33]: 1.51; fold change (FC) [34]: >4; fold change (FC) [35]: 1.01; fold change (FC) [36]: 2.01; fold change (FC) [37]: 2.01 |
| Cc1cc(C(=O)Nc2cccc(C3(Cc4nncn4C)COC3)c2)nc(C2CC2)n1 | <=1.4 | >4 | <=1.4 | >3.01 | 1.31 | >=0.201 | 1.51 | 2.01 | >=7.5 | 2.01 | 1.201 | > 1.51 | 1.401 | 2.01 | 2.01 | 1.201 | >1.61 | >=0.201 | >=1.001 | 1.201 | fold change (FC) [20]: 2.01; fold change (FC) [21]: 1.401; fold change (FC) [22]: 3.01; fold change (FC) [23]: 2.01; fold change (FC) [24]: 2.01; fold change (FC) [25]: >1.601; fold change (FC) [26]: >4; fold change (FC) [27]: 2.01; fold change (FC) [28]: 2.51; fold change (FC) [29]: 2.51; fold change (FC) [30]: >4; fold change (FC) [31]: >=7.5; fold change (FC) [32]: >4; fold change (FC) [33]: 2.01; fold change (FC) [34]: >4; fold change (FC) [35]: 1.01; fold change (FC) [36]: >4; fold change (FC) [37]: >=5 |
| C[C@H](Cc1nncn1C)c1cccc(N2Cc3c(cc(CN4CC(O)C4)cc3C(F)(F)F)C2=O)c1 | >1.61 | 2.01 | >1.61 | >3.01 | 1.01 | >=0.201 | 1.31 | 2.01 | >=7.5 | 2.01 | <=1.2 | 0.5 | 1.201 | <=1.5 | <=1.5 | <=1.2 | 1.41 | >=0.201 | >=1.001 | <=1.2 | fold change (FC) [20]: <=1.5; fold change (FC) [21]: <=1.2; fold change (FC) [22]: <=2; fold change (FC) [23]: 1.01; fold change (FC) [24]: 2.01; fold change (FC) [25]: 1.201; fold change (FC) [26]: 3.01; fold change (FC) [27]: 1.51; fold change (FC) [28]: <=2.5; fold change (FC) [29]: 2.51; fold change (FC) [30]: <=2; fold change (FC) [31]: >=7.5; fold change (FC) [32]: <=2; fold change (FC) [33]: <=1.5; fold change (FC) [34]: <=2; fold change (FC) [35]: 1.01; fold change (FC) [36]: <=2; fold change (FC) [37]: 2.01 |
| C[C@H](Cc1nncn1C)c1cccc(NC(=O)c2cccc(CCO)n2)c1 | <=1.4 | 2.01 | <=1.4 | <=2.5 | 1.01 | 0.151 | 1.31 | 1.01 | 2.51 | <=2 | <=1.2 | 1.01 | <=1.2 | <=1.5 | 1.51 | <=1.2 | <=1.4 | 0.051 | <=0.6 | <=1.2 | fold change (FC) [20]: <=1.5; fold change (FC) [21]: <=1.2; fold change (FC) [22]: <=2; fold change (FC) [23]: 1.01; fold change (FC) [24]: 1.01; fold change (FC) [25]: 1.201; fold change (FC) [26]: 3.01; fold change (FC) [27]: 1.51; fold change (FC) [28]: <=2.5; fold change (FC) [29]: <=2.5; fold change (FC) [30]: <=2; fold change (FC) [31]: 1.01; fold change (FC) [32]: <=2; fold change (FC) [33]: <=1.5; fold change (FC) [34]: <=2; fold change (FC) [35]: <=1; fold change (FC) [36]: <=2; fold change (FC) [37]: 2.01 |

From ChEMBL document CHEMBL5050844 (2019)
